From the supplement of paper PMC10307832

How the values were obtained:
Test in all cases: relative viability (nuclei count vs DMSO), 5 days (fraction); higher = more cells survive
[1] = compound: C1COCCN1C2=CC(=O)C3=C(O2)C(=CC=C3)C4=CC=CC5=C4SC6=CC=CC=C56
Outline: (§1)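 Viability was read as treated-well nuclei divided by vehicle-well nuclei, using the median across plates. Lung cancer cell lines in 1536-well plates were kept overnight at 37 °C, pinned with five √10-spaced library-drug doses, and after 5 days were Hoechst-stained, imaged at 4× and counted in MetaXpress. Plates passed only with control CV below 25% and at least one doubling.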

[2] = compound: CCN(CC)CCCCNc1ncc2cc(-c3cc(OC)cc(OC)c3)c(NC(=O)NC(C)(C)C)nc2n1
Outline: as §1

PRIMA-1MET = compound: COCC1(CO)C(=O)C2CCN1CC2 [PRIMA-1MET]
Outline: as §1

Zibotentan = compound: COc1nc(C)cnc1NS(=O)(=O)c1cccnc1-c1ccc(-c2nnco2)cc1 [Zibotentan]
Outline: as §1

[3] = compound: O=c1cc(-c2cccc3c2Sc2ccccc2S3)oc(N2CCOCC2)c1
Outline: as §1

Row | Cell Line | relative viability ([1]; 0.01 µM) | relative viability ([1]; 0.03162 µM) | relative viability ([1]; 0.1 µM) | relative viability ([1]; 0.3162 µM) | relative viability ([1]; 1 µM) | relative viability ([2]; 0.01 µM) | relative viability ([2]; 0.03162 µM) | relative viability ([2]; 0.1 µM) | relative viability ([2]; 0.3162 µM) | relative viability ([2]; 1 µM) | relative viability (PRIMA-1MET; 0.2 µM) | relative viability (PRIMA-1MET; 0.6325 µM) | relative viability (PRIMA-1MET; 2 µM) | relative viability (PRIMA-1MET; 6.325 µM) | relative viability (PRIMA-1MET; 20 µM) | relative viability (Zibotentan; 0.08 µM) | relative viability (Zibotentan; 0.253 µM) | relative viability (Zibotentan; 0.8 µM) | relative viability (Zibotentan; 2.53 µM) | relative viability ([3]; 0.08 µM) | relative viability ([3]; 0.253 µM) | relative viability ([3]; 0.8 µM) | relative viability ([3]; 2.53 µM) | relative viability ([3]; 8 µM)
1 | NCI-H1395 | 0.944 | 0.987 | 0.888 | 1.15 | 0.822 | 0.731 | 0.894 | 0.979 | 0.869 | 0.652 | 0.925 | 0.676 | 0.866 | 0.964 | 0.551 | 1.02 | 0.819 | 0.901 | 1.16 | 0.816 | 0.863 | 1.02 | 0.81 | 1.23
2 | NCI-H596 | 0.999 | 0.984 | 0.916 | 1.02 | 0.939 | 0.973 | 1.06 | 0.992 | 0.915 | 0.858 | 0.981 | 0.875 | 0.857 | 1.14 | 0.224 | 0.842 | 1.01 | 1.07 | 1.12 | 0.947 | 1.08 | 1.04 | 0.916 | 0.979
3 | BEN | 0.919 | 1.04 | 0.931 | 1.04 | 0.897 | 1 | 0.89 | 1 | 1.01 | 0.816 | 0.982 | 0.825 |  | 1.06 | 1.01 | 1.06 | 0.782 | 0.936 | 0.941 | 0.876 | 0.931 | 0.946 | 0.996 | 1.18
4 | SW 1573 | 0.981 | 0.998 | 0.985 | 0.952 | 0.938 | 0.932 | 1.01 | 1.09 | 1.02 | 0.906 | 1.11 | 0.787 | 0.87 | 0.246 | 0.0301 | 1.03 | 0.707 | 1.08 | 1.09 | 0.965 | 1.1 | 1 | 0.949 | 1.1
5 | PC-14 | 0.936 | 0.993 | 0.981 | 1.09 | 0.971 | 1.09 | 1.06 | 1.18 | 1.25 | 0.966 | 1.06 | 0.956 | 0.944 | 1.05 | 0.688 | 1.04 | 0.873 | 1.05 | 1.02 | 1.02 | 1.18 | 0.981 | 0.87 | 1.06
6 | PC-3 [JPC-3] | 0.965 | 1.01 | 0.91 | 1.03 | 0.977 | 1.1 | 1.02 | 1.12 | 1.23 | 0.911 | 1.16 | 1 | 0.997 | 1.07 | 0.997 | 1.06 | 0.979 | 1.05 | 1.06 | 0.99 | 1.05 | 1.02 | 0.943 | 1.08
7 | NCI-H727 | 0.91 | 0.858 | 0.874 | 0.888 | 0.958 | 0.985 | 0.978 | 0.94 | 1.07 | 0.882 | 1.01 | 0.865 | 0.625 | 0.615 | 0.331 | 0.847 | 0.872 | 0.966 | 1.01 | 0.908 | 1.08 | 0.758 | 0.899 | 0.924
8 | NCI-H1437 | 0.955 | 0.98 | 1.02 | 1.05 | 0.959 | 1.08 | 0.979 | 1.08 | 1.11 | 0.945 | 1.03 | 0.859 | 0.971 | 1 | 0.96 | 1.02 | 0.882 | 0.964 | 0.995 | 1.01 | 1.16 | 1.11 | 0.918 | 1.18
9 | ABC-1 | 0.917 | 1.16 | 1.03 | 1.04 | 0.954 | 0.957 | 0.838 | 1.25 | 1.07 | 0.869 | 0.953 | 0.621 | 0.903 | 0.829 | 0.247 | 1.06 | 0.753 | 0.96 | 1 | 0.922 | 1.09 | 0.808 | 0.976 | 1.12
10 | NCI-H1355 | 0.991 | 1.04 | 0.74 | 1.03 | 0.928 | 1.08 | 0.938 | 1.04 | 1.11 | 0.939 | 0.955 | 0.908 | 0.894 | 0.973 | 0.927 | 1 | 0.984 | 0.955 | 1 | 0.955 | 1.13 | 0.837 | 0.904 | 0.953
11 | NCI-H1650 | 0.788 | 0.893 | 0.998 | 0.957 | 0.788 | 0.981 | 0.983 | 1.08 | 0.981 | 0.706 | 1.1 | 0.858 | 0.793 | 0.912 | 0.489 | 0.937 |  | 0.994 | 0.968 | 0.851 | 1.07 | 0.844 | 0.888 | 0.868
12 | NCI-H1623 | 0.939 | 0.932 | 0.888 | 0.931 | 0.888 | 0.951 | 0.888 | 0.913 | 0.993 | 0.933 | 1.07 | 0.943 | 0.926 | 0.997 | 0.598 | 0.936 | 0.744 | 1.05 | 0.85 | 1.03 | 0.981 | 0.957 | 0.944 | 1.07
13 | NCI-H522 | 1.09 | 0.992 | 0.889 | 1.21 | 0.984 | 1.11 | 1.05 | 0.914 | 0.96 | 0.907 | 0.888 | 0.804 | 0.921 | 0.886 | 0.279 | 0.839 | 0.957 | 0.904 | 0.867 | 0.888 | 1.01 | 0.798 | 0.908 | 0.967
14 | NCI-H23 | 0.981 | 1.11 |  | 1.12 | 1.03 | 0.923 | 1 | 0.957 | 1.08 | 0.977 | 0.904 | 0.754 | 0.814 | 0.909 | 0.201 | 1.05 | 0.91 | 0.89 | 1.1 | 0.776 | 1.11 | 1.02 | 0.846 | 0.879
